# According to patent US20250130239A1, “PROTEIN DEGRADER” (University of Dundee, priority 2021, published 2025):
# Columns and labels:
# MV-4-11 cells = assay: CellTiter-Glo cell viability assay, MV-4-11; type: cell-based, human; conditions: up to 10 μM; 24 h
# Method: Cell Viability Assay. MV-4-11 cells were plated at a density of 2×10^4 cell per well of a 96 well white-bottom plate, and left to grow overnight in 50 μl of IMDM (Invitrogen, arlsebad, CA, USA) supplemented with 10% (v/v) Fetal bovine serum (FBS) (Thermo Fisher, Waltham, MA, USA) and 1% (v/v) penicillin/streptomycin (pen/strep) (#15140122, Thermo Fisher, Waltham, MA, USA) at 37° C., 5% CO2, and 95% humidity. […] These cells were then left to incubate at 37° C., 5% CO2, and 95% humidity for one day prior to undergoing spectrophotometric analysis. 22RV1 cells were plated at a density of 2×10^4 cell per well of a 96 well white-bottom plate, and left to grow overnight in 100 μL of RPMI-1640 (Invitrogen, Carlsebad, CA, USA) supplemented with 10% (v/v) fetal bovine serum (FBS) (Thermo Fisher, Waltham, MA, USA) and 1% (v/v) penicillin/streptomycin (pen/strep) (#15140122, Thermo Fisher, Waltham, MA, USA) at 37° C., 5% CO2, and 95% humidity. […] Plates were subjected to 2 mins on an orbital shaker to encourage lysis and left for a further 5 mins to reach peak luminescence. Luminescence was then recorded on a BMG Labtech PHERAstar luminescence plate reader with recommended settings. Data extracted from this analysis was analysed with Graphpad Prism (v. 8.2.0, GraphPad) and normalized to the DMSO vehicle control. […]
# [1] = test system: BromoTag-protein conjugates; assay: Degradation of a variety of BromoTag'ed target proteins (summary); type: cell-based; conditions: treatment window of 100 nM-1 nM
# Excerpt: (§1) Degradation of a variety of target proteins. […] We performed CRISPR knock-in of the BromoTag, as described, into the endogenous loci of five additional proteins. […] The target proteins of Table 6 are all different, are all known to have different cellular roles and function, intracellular expression, and distinctive turnover rates within cells.
# [2] = molecular target: T1, MCM2 (P49736), BromoTag N-term (Homo sapiens, UniProt O60885+P40337, L387A); assay: Degradation of BromoTag'ed MCM2 by AGB1; type: cell-based
# T1 construct: comprising residues 368-440 of human Brd4; MCM2 (endogenous protein, fusion partner in the same polypeptide); expressed in transfected cells
# T1 sequence (P40337 whole entry, other chains not shown, the tested form may be a part): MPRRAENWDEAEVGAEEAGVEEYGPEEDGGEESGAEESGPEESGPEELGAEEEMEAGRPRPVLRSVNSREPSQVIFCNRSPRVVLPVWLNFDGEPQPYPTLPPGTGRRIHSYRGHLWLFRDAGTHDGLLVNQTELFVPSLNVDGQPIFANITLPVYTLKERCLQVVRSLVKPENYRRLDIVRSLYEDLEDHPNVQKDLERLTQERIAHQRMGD
# Excerpt: as §1
# Plasma stability = type: in vitro ADME; conditions: mouse plasma, 37° C., over 1 h
# Method: Plasma Stability. Plasma stability studies were outsourced and undertaken by Shanghai ChemPartner Co., Ltd. Buffer preparation: A solution of 0.05 M sodium phosphate and 0.07 M NaCl buffer at pH 7.4 was made by dissolving 14.505 g/L Na2HPO4·12H2O, 1.483 g/L NaH2PO4·2H2O and 4.095 g/L NaCl in deionized water and the pH adjusted with phosphoric acid. Plasma preparation: Frozen mouse plasma was thawed by placing at 37° C. quickly. The thawed plasma was centrifuged at 3,000 rpm for 8 min to remove clots and the supernatant was pooled to be used as the plasma in the experiment. The plasma (pH 7.4-8.0) was stored on ice until used. […] Plasma and spiking solutions were pre-warmed at 37° C. for 5 min, then 10 μL of pre-warmed spiking solution B were added into the wells designated for all the time points (5, 15, 30, 45, 60 min). For 0-min, 400 μL of acetonitrile containing internal standards (Imipramine, Glipizide) were added to the wells of 0-min plate and then 90 μL of plasma was added. For the time points (0, 5, 15, 30, 45, 60 min), 90 μL of pre-warmed plasma was added to start timing. At 5, 15, 30, 45, 60 min, 400 μL of acetonitrile containing internal standard (Imipramine, Glipizide) were added to the wells of corresponding plates, respectively, to stop the reaction. […] Data was analysed with Microsoft Excel.
# [3] = molecular target: T2, BRD4 (O60885), BromoTag N-term (Homo sapiens, UniProt O60885+P40337, L387A); assay: Degradation of BromoTag'ed BRD4 by AGB1; type: cell-based
# T2 construct: comprising residues 368-440 of human Brd4; expressed in transfected cells
# T2 sequence (P40337 whole entry, other chains not shown, the tested form may be a part): as above
# Excerpt: as §1
smiles,measurement,setting,value
"CC[C@@H](C(=O)OCCOCCOCCOCC(=O)N[C@H](C(=O)N1C[C@H](O)C[C@H]1C(=O)NCc1ccc(-c2scnc2C)cc1)C(C)(C)C)[C@@H]1N=C(c2ccc(Cl)cc2)c2c(sc(C)c2C)-n2c(C)nnc21 (single isomer, unassigned) [AGB1 (46)]",cytotoxicity,MV-4-11 cells,lack of cytotoxicity
same,loss of total target protein,[1],greater than 95%
same,Dmax,[2],> 95%
same,pDC50,"[2]; BromoTag'ed MCM2, N-term tag",8.0
same,"plasma stability, levels remaining",Plasma stability,no significant changes
same,Dmax,[3],> 95%
same,pDC50,"[3]; BromoTag'ed BRD4, N-term tag",7.9
